Data on two molecules can be found in PMC6976569, “Structural basis of subtype-selective competitive antagonism for GluN2C/2D-containing NMDA receptors” (Nature Communications, 2020).

The IC50 is the concentration needed to halve the response being measured. A high value points to weaker potency. In general, Ki refers to the equilibrium dissociation constant of an inhibitor or competing ligand from its target. A low value points to higher affinity.

For one series, the target named is GluK2 (Homo sapiens, UniProt Q13002). Briefly: Glutamate-stimulated Ca2+-influx fluorescence assay in HEK293 cells, GluK2. In kind it is cell-based. The settings on record: for IC50: HEK293 cells, glutamate-stimulated Ca2+-influx. The method, then:
(§1) HEK293 cell lines stably expressing homomeric glutamate receptors (GluA1, GluK1 and GluK2) were obtained from Eli Lilly and grown in DMEM (ThermoFisher) supplemented with 10% v/v fetal bovine serum (Sigma), 2 mM Glutamax™ (Gibco), 100 U/mL penicillin, 100 µg streptomycin and 250 ng amphotericin B (Sigma) in 5% CO2 at 37 °C. Cells were passaged using TrypLE (Gibco) as required before confluency and periodically treated with selection antibiotics (GluK1, GluK2 hygromycin B, 200 µg/mL; GluA1 geneticin™, 200 µg/mL).
(§2) Calcium influx fluorescence assay
(§3) 100k cells/well were seeded into a 96-well plate precoated with poly-L-lysine and incubated for 12-16 hours until fully confluent. The cell monolayer was washed twice with 100 µL Hanks Balanced Salt Solution supplemented with 5 mM CaCl2 and 20 mM HEPES (sHBSS), then incubated for 2-4 hours with 100 µL working solution of Ca6 dye (Molecular Devices) supplemented with a desensitization blocker (GluK1, GluK2 0.25 mg/mL concanavalin A, Sigma; GluA1 100 µM cyclothiazide, Sigma). The time resolved fluorescence was recorded in a Flexstation 3 instrument (Molecular Devices). For each individual reading, the initial fluorescence of the well was measured for 20 seconds, after which the desired concentration of […]
(§4) response is measured as the peak change in fluorescence upon addition of agonist. The viability of the cells was confirmed by determination of the concentration-response curve to the L-glutamate agonist and a standard antagonist for each plate. Readings of antagonists used the […]
(§5) Fluorescence traces were performed in […]
(§6) triplicate on each plate and Ki values were determined on a plate-by-plate basis. Separate experiments (n) were performed on different passages of cells. […]

A further series concerns the target T1, GluN1-4a/GluN2C NMDARs (Rattus norvegicus, UniProt P35439+Q00961).
T1 construct: expressed in transfected cells; host or cells: Xenopus laevis oocytes injected with cRNA
The experiment in a line: TEVC electrophysiology on Xenopus laevis oocytes expressing GluN1-4a/GluN2C. Format: cell-based. The conditions noted are these: Ki, 100 μM glycine, 1 or 3 μM L-glutamate. The text has this: (§7) The chemical definition of UBP791 used in this study is a cis-racemic mixture of (2S,3R)- and (2R,3S)-isomers.
(§8) Plasmids (pSP or pCI_NEO) harboring rat GluN1 or GluN2 full-length subunits were linearized by restriction digestion and transcribed according to the manufacturer’s instructions (mMESSAGE mMachine SP6 or T7 kit, ThermoFisher Scientific). Recombinant rat GluN1-4a and GluN2 were expressed by co-injecting cRNA at a 1:2 (w/w) ratio into defolliculated X. laevis oocytes (amounts varied from 0.05–25 ng per oocyte). Two-electrode voltage-clamp recordings were performed 1–3 days after injection using agarose-tipped microelectrodes (0.4–1.2 MΩ) filled with 3 M KCl at a holding potential of −60 mV. The bath solution contained 5 mM HEPES, 100 mM NaCl, 0.3 mM BaCl2, 10 mM Tricine, at pH 7.4 (adjusted with KOH). […] For the statistical evaluation, we implemented pairwise F-tests to test variances, and then performed the Student t test with equal or unequal variances as determined previously, and accounted for multiple testing with the Bonferroni correction.

For the next series, the target named is GluA1 (Homo sapiens, UniProt P42261). Briefly: Glutamate-stimulated Ca2+-influx fluorescence assay in HEK293 cells, GluA1. The settings on record: for IC50: HEK293 cells, glutamate-stimulated Ca2+-influx. Format: cell-based. The method, then:
as §1, §2, §3, §4, §5, §6

In series [1] the target is T2, GluN1-4a/GluN2D NMDARs (Rattus norvegicus, UniProt P35439+Q62645).
T2 construct: expressed in transfected cells; host or cells: Xenopus laevis oocytes injected with cRNA
T2 sequence (Q62645 28-1323, other chains not shown): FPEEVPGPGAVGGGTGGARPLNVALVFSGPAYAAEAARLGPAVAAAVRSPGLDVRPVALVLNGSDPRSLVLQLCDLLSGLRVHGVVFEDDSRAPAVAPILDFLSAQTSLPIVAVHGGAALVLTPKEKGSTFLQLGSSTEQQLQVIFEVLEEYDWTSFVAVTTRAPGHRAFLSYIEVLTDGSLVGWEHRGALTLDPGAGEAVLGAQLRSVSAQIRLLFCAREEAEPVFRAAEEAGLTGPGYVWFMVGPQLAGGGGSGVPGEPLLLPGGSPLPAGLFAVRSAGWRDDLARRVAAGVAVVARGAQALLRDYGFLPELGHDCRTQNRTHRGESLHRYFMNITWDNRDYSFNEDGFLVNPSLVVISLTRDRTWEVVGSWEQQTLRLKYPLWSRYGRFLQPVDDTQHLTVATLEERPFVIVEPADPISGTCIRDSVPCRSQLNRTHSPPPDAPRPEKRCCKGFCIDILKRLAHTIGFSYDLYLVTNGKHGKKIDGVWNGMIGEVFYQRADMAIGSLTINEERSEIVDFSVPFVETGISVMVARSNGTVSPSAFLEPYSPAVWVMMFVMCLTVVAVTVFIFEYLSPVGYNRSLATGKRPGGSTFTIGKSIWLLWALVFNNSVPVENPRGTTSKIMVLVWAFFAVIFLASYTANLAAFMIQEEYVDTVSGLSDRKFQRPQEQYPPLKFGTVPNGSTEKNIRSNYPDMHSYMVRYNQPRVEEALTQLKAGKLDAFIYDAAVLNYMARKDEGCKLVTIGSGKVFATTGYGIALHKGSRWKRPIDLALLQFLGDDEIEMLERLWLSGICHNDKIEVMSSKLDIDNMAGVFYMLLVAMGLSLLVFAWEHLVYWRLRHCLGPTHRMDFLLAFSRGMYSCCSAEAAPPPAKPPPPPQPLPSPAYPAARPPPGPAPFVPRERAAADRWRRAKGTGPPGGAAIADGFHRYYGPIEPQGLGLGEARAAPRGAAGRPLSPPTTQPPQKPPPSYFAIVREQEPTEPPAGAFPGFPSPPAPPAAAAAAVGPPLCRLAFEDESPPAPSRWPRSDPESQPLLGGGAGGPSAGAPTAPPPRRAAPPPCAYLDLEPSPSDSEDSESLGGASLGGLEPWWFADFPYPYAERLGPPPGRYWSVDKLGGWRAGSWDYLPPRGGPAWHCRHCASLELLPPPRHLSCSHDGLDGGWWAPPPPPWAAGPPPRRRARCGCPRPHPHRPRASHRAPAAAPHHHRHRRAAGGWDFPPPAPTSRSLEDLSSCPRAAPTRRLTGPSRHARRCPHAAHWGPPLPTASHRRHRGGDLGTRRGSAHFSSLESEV
The experiment in a line: TEVC electrophysiology on Xenopus laevis oocytes expressing GluN1-4a/GluN2D. Format: cell-based. The conditions noted are these: for Ki: 100 μM glycine, 1 or 3 μM L-glutamate.
Description: as §7, §8

Series [2] deals with T3, GluN1-4a/GluN2D NMDARs (Rattus norvegicus, UniProt Q62645).
T3 construct: expressed in transfected cells; host or cells: Xenopus laevis oocytes injected with cRNA
T3 sequence (Q62645 28-1323, other chains not shown): as above
The description is as above. In kind it is cell-based.
Description: as §7, §8

A short description of series [3]: Water solubility (statement). Format: physicochemical. The conditions noted are these: authors' statement in peer review file.
The target of series [4] is T4, GluN1-4a/GluN2A NMDARs (Rattus norvegicus, UniProt Q00959).
T4 construct: expressed in transfected cells; host or cells: Xenopus laevis oocytes injected with cRNA
Briefly: TEVC electrophysiology on Xenopus laevis oocytes expressing GluN1-4a/GluN2A. In kind it is cell-based. The settings on record: for fold difference of Ki vs. 2D (GluN2A): Ki GluN2A relative to Ki GluN2D (WT).
Description: as §7, §8

For series [5], the target named is T5, GluN1-4a/GluN2A NMDARs (Rattus norvegicus, UniProt P35439+Q00959).
T5 construct: expressed in transfected cells; host or cells: Xenopus laevis oocytes injected with cRNA
Described as above. Format: cell-based. The settings on record: for Ki: Cheng–Prusoff from IC50 and L-glutamate EC50, 100 μM glycine, 1 or 3 μM L-glutamate.
Description: as §7, §8

Series [6] deals with T6, GluN1-4a/GluN2A-4m NMDAR (Ala414Arg, Lys738Met, Gly740Arg, Arg741Lys) (Rattus norvegicus, UniProt Q00959, A414R/G740R/K738M/R741K).
T6 construct: we incorporated the mutations, Ala414Arg, Lys738Met, Gly740Arg, and Arg741Lys, in the full-length GluN2A (GluN2A-4m); expressed in transfected cells; host or cells: Xenopus laevis oocytes injected with cRNA
The experiment in a line: TEVC electrophysiology on oocytes expressing GluN1-4a/GluN2A-4m mutant. The settings on record: Ki GluN2A-4m relative to Ki GluN2D (WT). In kind it is cell-based.
Description: Our previous structure of the GluN1–GluN2A LBD complexed to PPDA unambiguously mapped the antagonist-binding site at the cleft of the bilobe architecture of the GluN2 LBD (PDB: 4NF6). […] In this study, we focus on the comparison between the GluN2A and GluN2D subunits, since sequence and functional similarities between GluN2A and GluN2B and between GluN2C and GluN2D are high. Near the PPDA-binding pocket in the GluN2A LBD (Fig. 3a), the primary sequences across the GluN2A-D subunits are mostly identical except for four residues, GluN2A-Ala414, Lys738, Gly740, and Arg741, which are Arg, Met, Arg, and Lys residues in GluN2D, respectively (Fig. 3a; yellow residues and arrows in the sequence alignment). GluN2A-Ala414 is located in the D1-lobe, whereas GluN2A-Lys738, Gly740, and Arg741 are on Helix H in the D2-lobe proximal to the predicted binding site for the carboxyethyl group of UBP791. These residues are completely conserved among human, rat, and chicken, though GluN2A-Ala414 and -Lys738 are not conserved in X. laevis (frog) and Danio rerio (zebrafish) (Supplementary Fig. 1).
as §8

Where [7] appears, read: normalized response at 30 µM compound.
[8] abbreviates: normalized response at 100 µM compound.
Where [9] appears, read: Cheng–Prusoff from IC50 and L-glutamate EC50.
[10] abbreviates: inhibition dose-response, 100 μM glycine, 1 or 3 μM L-glutamate.

Where “and” joins values, the source holds several entries; their conditions need not be identical. Equal values may be shown once.

T1 sequence (Q00961 20-1237, other chains not shown): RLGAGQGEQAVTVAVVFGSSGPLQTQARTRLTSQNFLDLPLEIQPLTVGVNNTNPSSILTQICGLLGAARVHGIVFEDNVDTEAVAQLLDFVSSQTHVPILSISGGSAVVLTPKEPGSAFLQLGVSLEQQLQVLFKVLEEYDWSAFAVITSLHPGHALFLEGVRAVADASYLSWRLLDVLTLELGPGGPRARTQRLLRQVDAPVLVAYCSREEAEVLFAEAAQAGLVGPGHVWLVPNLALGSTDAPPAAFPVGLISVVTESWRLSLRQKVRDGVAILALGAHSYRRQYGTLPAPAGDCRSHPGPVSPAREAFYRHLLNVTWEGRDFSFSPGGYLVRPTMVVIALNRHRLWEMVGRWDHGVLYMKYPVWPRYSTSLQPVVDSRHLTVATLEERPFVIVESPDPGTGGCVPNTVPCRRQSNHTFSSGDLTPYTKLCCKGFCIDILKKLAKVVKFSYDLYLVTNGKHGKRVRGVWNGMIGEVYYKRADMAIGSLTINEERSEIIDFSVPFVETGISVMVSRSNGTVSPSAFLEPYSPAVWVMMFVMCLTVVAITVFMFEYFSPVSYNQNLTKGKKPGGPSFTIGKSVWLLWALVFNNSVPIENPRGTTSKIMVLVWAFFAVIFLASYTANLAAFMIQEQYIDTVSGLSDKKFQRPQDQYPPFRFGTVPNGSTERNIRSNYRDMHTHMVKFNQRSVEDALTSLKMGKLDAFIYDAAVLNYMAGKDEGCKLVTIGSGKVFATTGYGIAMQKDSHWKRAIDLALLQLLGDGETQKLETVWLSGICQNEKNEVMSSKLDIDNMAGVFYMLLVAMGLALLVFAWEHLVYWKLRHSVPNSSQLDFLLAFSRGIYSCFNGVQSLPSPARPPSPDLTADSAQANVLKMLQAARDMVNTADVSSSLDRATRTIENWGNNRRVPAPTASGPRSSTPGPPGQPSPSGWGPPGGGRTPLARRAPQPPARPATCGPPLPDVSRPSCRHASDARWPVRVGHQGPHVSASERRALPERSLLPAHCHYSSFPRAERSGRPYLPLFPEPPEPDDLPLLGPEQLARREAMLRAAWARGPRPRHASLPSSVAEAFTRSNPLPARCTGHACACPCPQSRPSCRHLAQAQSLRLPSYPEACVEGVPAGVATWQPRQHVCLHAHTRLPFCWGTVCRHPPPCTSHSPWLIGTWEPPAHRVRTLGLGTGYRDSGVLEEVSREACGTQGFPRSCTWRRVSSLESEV
Chain of GluA1 (P42261 19-906): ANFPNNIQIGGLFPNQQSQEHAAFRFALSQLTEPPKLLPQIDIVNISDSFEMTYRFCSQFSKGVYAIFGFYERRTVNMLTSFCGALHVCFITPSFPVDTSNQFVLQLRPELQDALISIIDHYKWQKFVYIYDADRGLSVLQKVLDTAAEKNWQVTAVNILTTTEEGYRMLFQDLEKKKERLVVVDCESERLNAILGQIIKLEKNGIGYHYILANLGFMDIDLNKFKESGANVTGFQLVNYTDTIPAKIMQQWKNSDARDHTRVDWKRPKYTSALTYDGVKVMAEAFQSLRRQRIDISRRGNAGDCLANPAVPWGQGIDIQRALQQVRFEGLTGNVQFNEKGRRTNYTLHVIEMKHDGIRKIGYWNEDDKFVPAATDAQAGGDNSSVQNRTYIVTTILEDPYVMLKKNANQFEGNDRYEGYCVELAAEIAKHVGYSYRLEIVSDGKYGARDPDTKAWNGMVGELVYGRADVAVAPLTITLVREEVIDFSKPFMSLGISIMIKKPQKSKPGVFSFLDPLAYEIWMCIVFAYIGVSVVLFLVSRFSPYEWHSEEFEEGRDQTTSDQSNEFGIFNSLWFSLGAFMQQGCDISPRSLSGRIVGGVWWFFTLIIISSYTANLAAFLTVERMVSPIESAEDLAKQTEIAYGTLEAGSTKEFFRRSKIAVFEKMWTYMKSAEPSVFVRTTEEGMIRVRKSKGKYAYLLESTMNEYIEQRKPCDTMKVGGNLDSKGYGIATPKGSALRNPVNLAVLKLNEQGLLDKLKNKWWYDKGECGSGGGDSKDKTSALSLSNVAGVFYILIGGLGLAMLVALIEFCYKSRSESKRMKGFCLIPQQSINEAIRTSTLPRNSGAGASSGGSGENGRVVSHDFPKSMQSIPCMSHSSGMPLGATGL
Chain of GluK2 (Q13002 32-908): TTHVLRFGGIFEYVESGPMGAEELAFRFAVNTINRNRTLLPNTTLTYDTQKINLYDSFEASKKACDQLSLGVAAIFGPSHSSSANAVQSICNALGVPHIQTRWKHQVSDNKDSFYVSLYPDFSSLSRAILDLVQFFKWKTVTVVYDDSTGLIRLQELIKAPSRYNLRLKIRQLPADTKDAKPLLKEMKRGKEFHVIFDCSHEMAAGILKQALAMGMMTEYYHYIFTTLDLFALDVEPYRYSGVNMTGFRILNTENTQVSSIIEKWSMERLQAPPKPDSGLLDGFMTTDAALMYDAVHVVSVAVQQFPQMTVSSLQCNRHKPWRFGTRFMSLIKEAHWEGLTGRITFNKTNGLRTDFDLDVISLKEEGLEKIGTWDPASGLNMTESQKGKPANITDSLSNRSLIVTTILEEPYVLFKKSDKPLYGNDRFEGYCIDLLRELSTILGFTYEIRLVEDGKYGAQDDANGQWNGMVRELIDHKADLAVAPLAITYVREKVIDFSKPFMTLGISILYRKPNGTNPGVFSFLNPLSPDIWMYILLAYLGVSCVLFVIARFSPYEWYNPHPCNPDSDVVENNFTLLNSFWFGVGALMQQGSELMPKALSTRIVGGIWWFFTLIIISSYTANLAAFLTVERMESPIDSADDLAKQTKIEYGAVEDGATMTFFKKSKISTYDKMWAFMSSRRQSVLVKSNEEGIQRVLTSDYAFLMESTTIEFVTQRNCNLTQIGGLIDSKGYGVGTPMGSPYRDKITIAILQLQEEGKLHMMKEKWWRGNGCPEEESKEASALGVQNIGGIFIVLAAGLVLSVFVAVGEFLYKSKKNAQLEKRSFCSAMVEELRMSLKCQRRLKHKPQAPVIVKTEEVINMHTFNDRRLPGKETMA

As to `O=C(O)CCc1ccc2c(ccc3cc(C(=O)N4CCN[C@@H](C(=O)O)[C@H]4C(=O)O)ccc32)c1` (relative stereo) [UBP791, (2S*,3R*)-1-(7-(2-carboxyethyl)phenanthrene-2-carbonyl)piperazine-2,3-dicarboxylic acid], the IC50 at GluK2 was above 100 µM; against GluA1, above 100 µM; against GluN1-4a/GluN2D NMDARs [1], 560 ± 10 nM; on GluN1-4a/GluN2A NMDARs [5] it was 6.31 ± 0.4 µM. In addition, the “Mean Response” value was 96.1% on GluK2 (setting [7]), 97.8% at GluK2 (setting [8]), 94.1% on GluA1 (setting [7]) and 86.0% at GluA1 (setting [8]). Also, the Ki is 80 ± 10 nM at GluN1-4a/GluN2C NMDARs (setting [9]); 80 to 90 nM on GluN1-4a/GluN2C NMDARs (Cheng–Prusoff); 90 ± 20 nM on GluN1-4a/GluN2D NMDARs [1] (setting [9]); 80 to 90 nM on GluN1-4a/GluN2D NMDARs [1] (Cheng–Prusoff); 4.07 µM and ~4 µM on GluN1-4a/GluN2A NMDARs [5]. Besides, the “Hill coefficient (nH)” value at GluN1-4a/GluN2D NMDARs [2] (setting [10]) is given as 1.40 ± 0.02; on GluN1-4a/GluN2A NMDARs [4] (setting [10]), 1.19 ± 0.07. In [3], the “water solubility relative to PPDA” value is “more water soluble than PPDA”. The “fold difference of Ki vs. 2D (GluN2A)” value on GluN1-4a/GluN2A NMDARs [4] was ~ 47 fold. Besides, the “GluN2C/2D-selectivity over GluN2A” value at GluN1-4a/GluN2A NMDARs [4] (ratio of Ki values) turned out to be 47 fold. Also, in series [6], the “fold difference of Ki vs. 2D (GluN2A-4m)” value is on record as ~ 8 fold.

On to `O=C(O)C=Cc1ccc2c(ccc3cc(C(=O)N4CCN[C@@H](C(=O)O)[C@H]4C(=O)O)ccc32)c1` (relative stereo) [UBP1700, (2S*,3R*)-1-(7-(2-carboxyvinyl)phenanthrene-2-carbonyl)piperazine-2,3-dicarboxylic acid], for which the IC50 at GluK2 and at GluA1 was above 100 µM throughout. Further, the “Mean Response” value at GluK2 (setting [7]) is listed as 76.5%; at GluK2 (setting [8]), 90.4%; at GluA1 (setting [7]), 105.1%; on GluA1 (setting [8]), 101.8%. Moreover, the inhibition constant Ki at GluN1-4a/GluN2C NMDARs (Cheng–Prusoff) is 7 to 9 nM and 9 nM; on GluN1-4a/GluN2D NMDARs [1] (Cheng–Prusoff), 7 nM and 7 to 9 nM; on GluN1-4a/GluN2A NMDARs [5] it was 0.43 ± 0.04 µM. Moreover, the “fold higher affinity on GluN2D compared to UBP145 and UBP161” value on GluN1-4a/GluN2D NMDARs [2] (peer review file, authors' response) is above 140 fold. Further, the “water solubility relative to PPDA” value in series [3] is listed as “more water soluble than PPDA”. Also, the “fold difference of Ki vs. 2D (GluN2A)” value at GluN1-4a/GluN2A NMDARs [4] is reported as ~ 64 fold. In addition, on GluN1-4a/GluN2A NMDARs [4] (ratio of Ki values), the “selectivity for GluN2C over GluN2A” value was 50 fold. In [6], the “fold difference of Ki vs. 2D (GluN2A-4m)” value is ~ 7 fold.
